The target in data set [1] is T1, L(+)-lactate dehydrogenase from A. eutrophus (Cupriavidus necator, UniProt Q07251).
T1 sequence (Q07251 1-349): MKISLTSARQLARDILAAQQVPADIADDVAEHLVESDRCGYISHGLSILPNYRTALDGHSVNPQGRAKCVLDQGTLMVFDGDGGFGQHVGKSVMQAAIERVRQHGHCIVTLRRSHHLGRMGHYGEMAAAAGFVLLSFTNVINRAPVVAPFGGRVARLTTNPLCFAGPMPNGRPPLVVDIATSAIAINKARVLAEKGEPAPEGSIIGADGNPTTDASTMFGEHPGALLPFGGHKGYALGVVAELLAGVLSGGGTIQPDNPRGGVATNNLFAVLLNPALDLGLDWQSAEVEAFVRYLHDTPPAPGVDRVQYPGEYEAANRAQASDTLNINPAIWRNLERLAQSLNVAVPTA
As to conditions: compared with that on pyruvate; cited from earlier work.

The target in data set [2] is homoserine kinase (Escherichia coli, UniProt P00547). As to conditions: cited from earlier work.
Data set [3] relates to CCCC=O. The experiment in a line: ADH enzyme assay of Adh1 (084), Km for aldehyde substrates. Particulars: other: reductive ADH assay, enzyme expressed in E. coli; pH 7.5. Format: biochemical, Geobacillus thermoglucosidasius. The source says: (§1) The Adh1 enzyme (084) expressed very well from its native gene in E. coli (see FIG. 32A).
Data set [4] has as its system O=CCCCO. The data set is described as above. Type of data set: biochemical, Geobacillus thermoglucosidasius. Particulars: other: reductive ADH assay, enzyme expressed in E. coli; pH 7.5.
Excerpt: as §1

For data set [5], the target named is T2, L(+)-lactate dehydrogenase from rabbit muscle (Oryctolagus cuniculus, UniProt P13491).
T2 construct: rabbit muscle; host or cells: rabbit muscle
As to conditions: compared with that on pyruvate; cited from earlier work.

Chain of homoserine kinase (P00547 whole entry): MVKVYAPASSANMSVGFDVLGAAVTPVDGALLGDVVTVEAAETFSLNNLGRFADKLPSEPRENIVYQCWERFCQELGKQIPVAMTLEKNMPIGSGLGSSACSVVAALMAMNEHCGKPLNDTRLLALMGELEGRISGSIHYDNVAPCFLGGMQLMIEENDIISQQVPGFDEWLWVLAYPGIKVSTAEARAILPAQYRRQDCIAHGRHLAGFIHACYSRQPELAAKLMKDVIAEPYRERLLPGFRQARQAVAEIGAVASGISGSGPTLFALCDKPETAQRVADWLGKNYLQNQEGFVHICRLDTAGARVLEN

Take `O=C(O)CCC(=O)C(=O)O` [2-Oxoglutarate]: the “Activity (%) of L(+)-lactate dehydrogenase from A. eutrophus” value (“Activity (%) … from A. eutrophus” for short) in data set [1] is recorded as 79.6%.

For the compound `O=C(O)C(=O)CF` [3-Fluoropyruvate], the “Activity (%) … from A. eutrophus” value in data set [1] was 33.6%.

Consider `COC(=O)[C@@H](N)CCO` [L-homoserine methyl ester], for which the Km – broadly, the substrate concentration at which the rate is half of its maximum – in data set [2] was 4.9 ± 2 mM.

As to `N[C@@H](CCO)C(=O)O` [L-homoserine], the Michaelis constant (Km) in data set [2] is 0.14 ± 0.04 mM.

As to `CC(C)C(=O)C(=O)O` [3-Methyl-2-oxobutyrate], the “Activity (%) … from A. eutrophus” value in data set [1] is on record as 28.5%.

As to `CC(C)COC(=O)[C@@H](N)CCO` [L-homoserine isobutyl ester], the Km in data set [2] was 6.9 ± 1.1 mM.

As to “Adh1 enzyme (084) (Geobacillus sp. M10EXG)”, the Km in data set [3] stood at 1.2 mM; in data set [4], 4.0 mM.

Take `CCC(=O)C(=O)O` [2-Oxobutyrate]: the “Activity (%) … from A. eutrophus” value in data set [1] is recorded as 107.0%.

`N[C@H](CO)CCO` [L-2-amino-1,4-butanediol]: the Km in data set [2] was 11.6 ± 6.5 mM.

As for `CCOC(=O)[C@@H](N)CCO` [L-homoserine ethyl ester], the Km in data set [2] was 1.9 ± 0.5 mM.

Turning to `N[C@H](CCO)C(=O)O` [D-homoserine], the Km in data set [2] was 31.8 ± 7.2 mM.

As for `CCCC(=O)C(=O)O` [2-Oxovalerate], the “Activity (%) … from A. eutrophus” value in data set [1] is recorded as 125.0%.

On to `CCCOC(=O)[C@@H](N)CCO` [L-homoserine n-propyl ester], for which the Km in data set [2] is 3.5 ± 0.4 mM.

`O=CC(=O)O` [Glyoxylate]: the “Activity (%) of L(+)-lactate dehydrogenase from rabbit muscle” value in data set [5] is listed as 23.9%.

For `CC(C)OC(=O)[C@@H](N)CCO` [L-homoserine isopropyl ester], the Km in data set [2] is 1.2 ± 0.5 mM.

Values taken from patent US20130029381A1, “MICROORGANISMS FOR THE PRODUCTION OF 1,4-BUTANEDIOL, 4-HYDROXYBUTANAL, 4-HYDROXYBUTYRYL-COA, PUTRESCINE AND RELATED COMPOUNDS, AND METHODS RELATED THERETO” (GENOMATICA, INC., priority 2009, published 2013).
